Measurements from patent US20180258381A1, “BIO-LAMINA BIOREACTORS AND METHODS OF MAKING AND USING THE SAME” (Oregon State University, priority 2015, published 2018).

Test system: MDH
Assay: MDH activity reactivity assay (methanol SOUR), inhibitor trials
Type: cell-based, M. trichosporium OB3b
Settings: salts tested on MMO and MDH activity
Procedure: The procedure for measuring methanol dehydrogenase (MDH) activity by measuring the specific oxygen uptake rate (SOUR) has been tested on M. trichosporium OB3b cultures grown both in batch and in the chemostat. M. trichosporium OB3b cells were harvested using centrifugation. The supernatant was poured off and the cells were re-suspended in fresh media lacking a carbon source. Phosphate buffer solution was added to a sample chamber in which dissolved oxygen (DO) was measure with a DO probe. When the DO of the solution stabilized, the re-suspended cells were added to the sample chamber to measure baseline oxygen uptake by the cells without a carbon food source present. Methanol was then added to test for MDH activity. The difference in the oxygen uptake rates illustrates the MDH activity of the culture.
Metabolic activity test methods have been developed to monitor specific activities in M. trichosporium OB3b cultures. A naphthalene oxidation assay was used to determine if sMMO is being expressed. An ethylene to ethylene oxide reaction assay and a methane oxidation assay was used to quantify MMO activity, and a methanol oxidation assay was used to estimate MDH activity. Concurrent batch metabolic tests can be conducted to investigate methanol inhibition of methane oxidation, cyclopropane to cyclopropanol conversion and concurrent/subsequent cyclopropanol inhibition of MDH activity, the effect of cyclopropanol inhibition on growth yield, and the effects of high oxygen concentration.
The effect of salts NaCl, NH4Cl and CaCl2 on MMO and MDH activity was evaluated using the reactivity assays described above.

Compound | selective inhibition of MDH activity versus MMO
Cl.N [NH4Cl] | None of the salts were effective
[Cl-].[Na+] [NaCl] | None of the salts were effective
